The values that follow come from patent US8355877B2, “System for predicting responsiveness to a pharmaceutical therapy for obesity” (priority 2007, dated 2013).

Structures are written as SMILES.

In assay [1] the test system is DIO-LE rats maintained on a high fat chow. Nature of the assay: Cross therapeutic target rat study: reduction of TRL V6 concentration (NMR LipoProfile) after an acute dose. It is filed as in vivo. As for the experimental part: (§1) As a typical example, whole blood samples are collected into 2 ml EDTA blood collection tubes, inverted several times to mix well, and placed on ice. The samples are then centrifuged at approximately 3000 rpm for 10-15 minutes at 4° C. Upon completion of centrifugation, the tube is placed on ice and the plasma is drawn off. The plasma is place into a polypropylene tube and kept at 4° C. until analysis. Samples may be analyzed at any time up to about 4 days after collection. Samples are analyzed for TRL V6 response, as for example by NMR plasma lipoprotein analysis, as for example, the NMR LipoProfile®, the NMR LipoProfile®-II or the NMR LipoProfile®-III lipoprotein tests provided by LipoScience, Inc. of Raleigh, N.C.
(§2) NMR spectral data is analyzed as described in Jeyarajah et al., supra. Lipoprotein subclass concentrations are reported in lipid mass concentration units (TRL subclasses in units of mg/dL triglyceride) or, alternatively, in particle concentration units of nmol/L (nanomoles of particles per liter). The source information (NMR signal amplitude of each subclass) is transformed into these mass or particle concentration units by the analysis software, using a set of conversion factors obtained from chemical lipid and NMR analyses of isolated chylomicron, VLDL, LDL, and HDL subclass standards of normal lipid composition.
The ability of investigational weight loss pharmaceutical agents to reduce the TRL V6 concentration in rats is shown with three compounds targeting different mechanisms of action including a known potent and selective 5-HT2C receptor agonist, a known potent and selective CB-1 receptor antagonist/inverse agonist, and a potent SNDRI (sibutramine). Each of these compounds are known to induce weight loss in rats and thus the biomarker of reduction in TRL V6 concentration correlates to the investigational weight loss pharmaceutical agents' ability to induce weight loss. Conversely, an opiate antagonist, (naltrexone) which is known to be ineffective in inducing weight loss in rats or in overweight and obese human subjects (Malcolm R et al., Int. J. Obes. 1985; 9(5):347-53), is shown to not reduce the TRL V6 concentration in rats, again correlating the biomarker of reduction in TRL V6 concentration to the investigational weight loss pharmaceutical agents' ability to induce weight loss.
DIO-LE rats maintained on a high fat chow are administered either a vehicle dose or an acute dose of test compound. At specified time points post dose, animals are sacrificed and blood is collected in blood sample tubes containing EDTA and processed essentially as described above. Samples are analyzed by NMR LipoProfile® lipoprotein sub-particle test with report of all particle subtypes (specifically the TRL V6 concentration or particle number).

For assay [2], the system named is hypertriglyceridemic and overweight and obese but otherwise healthy subjects. Nature of the assay: Human study with a SNDRI (sibutramine): TRL response to fat load, single-blind crossover vs placebo, NMR LipoProfile III. It is filed as in vivo. The protocol:
Note that where TRL V6 response can be equated with the response of a combination of subtypes, it is because the magnitude of the change in signal, which is due to the change of TRL V6 signal, is sufficiently large compared to the base line signal, to be a significant difference (i.e. the signal from TRL V6 in the base line signal dominates the combined signal so that a change in TRL V6 is reliably detected).
as §1, §2
A SNDRI (sibutramine) known to be able to induce weight loss in humans is tested to correlate its ability to reduce TRL V6 response plasma concentrations and V-TRL response in humans in an exploratory biomarker study employing a single-blind, crossover design, comparing sibutramine and placebo in hypertriglyceridemic and overweight and obese but otherwise healthy subjects.
Three cohorts containing 6 subjects each, undergo three periods during the study. Subjects are fasted overnight and two fasting blood draws are obtained, followed by breakfast at approximately 07:00 hours. Placebo or sibutramine is administered at approximately 10:00 hours. Blood sampling is begun approximately 1 hr. after the start of breakfast and continues at hourly intervals for 7 hr., and then every 2 hr. for the next 10 hr. A lunch according to Example fat load 2 is served at approximately 12:00 hours (approximately 60 to 65 g of fat). No other food is permitted until 12 hr. post fat load administration. Subjects are released after the last blood sampling for a 4 to 8-day washout period before return for the second testing period of the study. After the washout period, subjects are again fasted overnight. The procedures are then repeated as in the first testing period of the study except that each subject crosses over to receive the alternate treatment, sibutramine or placebo. Blood samples are collected, processed and analyzed essentially as described in Example 1 above.
TRL V6 responses and V-TRL responses are observed during the period from 5 to 11 hr. post fat load. […] In most subjects, the administration of sibutramine reduced the magnitude of the TRL V6 response and V-TRL response compared to their placebo-treated responses. Thus the reduction of the TRL V6 response and V-TRL response induced by the SNDRI correlates with the SNDRI known ability to induce weight loss in humans.

Setting [3] is: 5 hr. post dose, CB-1 antagonist 0.3 mg/kg, SNDRI 3 mg/kg, rats.
Where [4] appears, read: rats, 5-HT2C agonist 10 mg/kg, CB-1 antagonist 0.3 mg/kg, SNDRI 3 mg/kg, naltrexone 10 mg/kg oral.
Where [5] appears, read: AUC 5-11 hr. post fat load vs placebo, humans.
Setting [6] is: AUC from lipid load vs placebo, Table 2.

For `CC(C)CC(N(C)C)C1(c2ccc(Cl)cc2)CCC1` (stereo not drawn) [Sibutramine, sibutramine], the “reduction of TRL V6 concentration” value in assay [1] (2 hr. post dose, 3 mg/kg, rats) is “about 78%”. Further, the “reduction of circulating concentration of TRL V6” value in assay [1] (2 hr. post dose, 5-HT2C agonist 10 mg/kg, SNDRI 3 mg/kg, naltrexone 10 mg/kg oral, rats) was “about 78%”. For the same compound, in assay [1] (setting [3]), the “reduction of TRL V6 concentration” value is “about 78%” and the “reduction of circulating concentration of TRL V6” value is listed as “about 78%”. In assay [1] (T1 (ie 2 hrs) post dose, dose per compound in column Dose (10, 0.3, 3, 10 mg/kg), DIO-LE rats), the “Reduction in TRL V6 Response, T1-(ie 2 hrs)” value worked out at 78%. Also, the “Reduction in TRL V6 Response, T2-(ie 5 hrs)” value in assay [1] (T2 (ie 5 hrs) post dose, dose per compound in column Dose, DIO-LE rats) is 78%. Moreover, the “Reduction in TRL V6 Response, T3-(ie 18 hrs)” value in assay [1] (T3 (ie 18 hrs) post dose, dose per compound in column Dose, DIO-LE rats) came out at 0%. Further, in assay [1] (setting [4]), the “time post dose at which TRL V6 plasma concentration returns to baseline” value is ≤ 18 h. Also, in assay [2] (setting [5]), the “change in mean V-TRL response” value is given as “statistically significant decrease” and the “change in the plasma concentrations of TRL V1, V2, V3, V4, or V5 subtypes” value was “does not show a significant change”. Moreover, the “decrease in the TRL V6 response (AUC) vs placebo” value in assay [2] (AUC 5-11 hr. post fat load, mixed effects model, statistically significant, humans) is listed as “about 28%”. For the same compound, in assay [2] (setting [6]), the “change in TRL V6+TRL V5” value is “did not produce a significant change”, the “change in TRL V6+TRL V5+chylomicrons” value is recorded as “did not produce a significant change”, the “change in TRL V6+chylomicrons” value is listed as “showed a significant change” and the “effect on TRL V6 response” value is reported as “reduced the TRL V6 response”. In assay [2] (TRL V5, AUC 5-11 hr. from lipid load, P 0.474), the “Sibutramine/Placebo Ratio of AUC, TRL V5” value was found to be 1.10. Besides, the “Geometric LS Mean of AUC, TRL V5” value in assay [2] (TRL V5, AUC 5-11 hr. time points from lipid load, human plasma, NMR) is on record as 222.34. Also, in assay [2] (TRL V6 + Chy, AUC 5-11 hr. from lipid load, P 0.004), the “Sibutramine/Placebo Ratio of AUC, TRL V6 + Chy” value is listed as 0.81. In assay [2] (TRL V6 + Chy, AUC 5-11 hr. time points from lipid load, human plasma, NMR), the “Geometric LS Mean of AUC, TRL V6 + Chy” value is 205.0. Besides, the “Sibutramine/Placebo Ratio of AUC, TRL V6 + TRL V5” value in assay [2] (TRL V6 + TRL V5, AUC 5-11 hr. from lipid load, P 0.091) was determined as 0.88. For the same compound, the “Geometric LS Mean of AUC, TRL V6 + TRL V5” value in assay [2] (TRL V6 + TRL V5, AUC 5-11 hr. time points from lipid load, human plasma, NMR) is on record as 364.08. Further, the “Sibutramine/Placebo Ratio of AUC, TRL V6 + V5 + Chy” value in assay [2] (TRL V6 + V5 + Chy, AUC 5-11 hr. from lipid load, P 0.110) was 0.89. For the same compound, the “Geometric LS Mean of AUC, TRL V6 + V5 + Chy” value in assay [2] (TRL V6 + V5 + Chy, AUC 5-11 hr. time points from lipid load, human plasma, NMR) is reported as 458.04. The “Sibutramine/Placebo Ratio of AUC, TRL V6” value in assay [2] (TRL V6, AUC 5-11 hr. from lipid load, P 0.001) worked out at 0.73. Besides, in assay [2] (TRL V6, AUC 5-11 hr. time points from lipid load, human plasma, NMR), the “Geometric LS Mean of AUC, TRL V6” value was 119.35. Moreover, the “Sibutramine/Placebo Ratio of AUC, Chy” value in assay [2] (chylomicrons, AUC 5-11 hr. from lipid load, P 0.721) was 0.98. The “Geometric LS Mean of AUC, Chy” value in assay [2] (chylomicrons, AUC 5-11 hr. time points from lipid load, human plasma, NMR) is reported as 81.11.
For `O=C1CC[C@@]2(O)[C@H]3Cc4ccc(O)c5c4[C@@]2(CCN3CC2CC2)[C@H]1O5` [Naltrexone, naltrexone], the “TRL V6 level versus baseline at 18 hr. post dose” value in assay [1] (10 mg/kg oral, 18 hr. post dose, rats) was “unchanged”. Also, in assay [1] (10 mg/kg orally administrated dose, rats), the “effect on circulating TRL V6 levels” value was “minimal effect”. In addition, in assay [1] (setting [4]), the “time post dose at which TRL V6 plasma concentration returns to baseline” value worked out at 5 h.
